This is an account of results in patent publication US20110280940A1, “Di-Vanilloyl And Tri-Vanilloyl Derivatives For Use In Anti-Cancer Therapy” (priority 2008, published 2011).

Test [1] has as its system U373 glioblastoma cells. Briefly: MTT colorimetric assay, overall cell growth, U373. The format is cell-based, human. Conditions: 72 hours of incubation, read-out: In Vitro IC50 Growth Inhibitory Values, U373. From the text: (§1) The amount of formazan obtained at the end of the experiment, measured by means of a spectrophotometer, is directly proportional to the number of living cells. Optical density determination thus enabled a quantitative measurement of the effect of the investigated compounds as compared to the control condition (untreated cells) and/or to other reference compounds. Eleven human cancer cell lines and one mouse melanoma cell-line (B16F10) described in Table 2 were used in the following MTT tests. These cancer cell lines cover seven histological cancer types including prostate (PC3), glioma (Hs683, T98G, U373, melanoma (VM21, VM28), non-small-cell-lung (A549), breast (MCF-7), colon (LoVo) and oesophageal (OE21, OE33) cancers. […] Each cell line was seeded in its appropriate culture medium. The detailed experimental procedure was the following: after a 24-hour period of incubation at 37° C., the culture medium was replaced by 100 μl of fresh medium in which the tested compound was previously dissolved, at the following molar concentrations: 10^-8 […] and 10^-4 M. Each experiment was performed in sestuplicates (6 times). After 72 hours of incubation at 37° C. with (experimental conditions) or without (control condition) the compound to be tested, the medium was replaced by 100 μl MTT dissolved in RPMI (1640 without phenol red) at a concentration of 0.5 or 1 mg/ml. The micro-wells were subsequently incubated during 3 hours and a half at 37° C. and centrifuged at 1300 rpm during 10 minutes. MTT was removed and formazan crystals formed were dissolved in 100 μl DMSO. The micro-wells were shaken for 5 minutes and read on a spectrophotometer at wavelengths of 570 nm (maximal formazan absorbance). For each experimental condition, the mean optical density was calculated, allowing the determination of the percentage of remaining living cells in comparison to the control. […] The origin of all the cell lines we used, along with their biological characteristics, and the validation procedures of the MTT colorimetric assay as employed here are fully detailed in Van Quaquebeke et al., 2005, J Med Chem 48:849-856; […]
In general terms: Tetrazolium assays rely on reduction of a dye to a coloured formazan, in cell work by metabolically active cells.

Test [2] has as its system Hs683 glioma cells. Briefly: MTT colorimetric assay, overall cell growth, Hs683. The format is cell-based, human. Conditions: 72 hours of incubation, read-out: In Vitro IC50 Growth Inhibitory Values, Hs683.
Description: as §1

The subject of test [3] is A549 non-small-cell-lung cancer cells. The test can be described thus: MTT colorimetric assay, overall cell growth, A549. Conditions: 72 hours of incubation, read-out: In Vitro IC50 Growth Inhibitory Values, A549. The format is cell-based, human.
Description: as §1

In test [4] the test system is PC-3 prostate cancer cells. Briefly: MTT colorimetric assay, overall cell growth, PC-3. Format: cell-based, human. Particulars: 72 hours of incubation, read-out: In Vitro IC50 Growth Inhibitory Values, PC-3.
Description: as §1

Test [5] deals with MCF-7 breast cancer cells. Briefly: MTT colorimetric assay, overall cell growth, MCF-7. The format is cell-based, human. Conditions: 72 hours of incubation, read-out: In Vitro IC50 Growth Inhibitory Values, MCF-7.
Description: as §1

In test [6] the test system is LoVo colon cancer cells. The test can be described thus: MTT colorimetric assay, overall cell growth, LoVo. Format: cell-based, human. Particulars: 72 hours of incubation, read-out: In Vitro IC50 Growth Inhibitory Values, LoVo.
Description: as §1

Test [7] has as its system T98G glioma cells. The test can be described thus: MTT colorimetric assay, overall cell growth, T98G. The format is cell-based, human. Particulars: 72 hours of incubation, read-out: In Vitro IC50 Growth Inhibitory Values, T98G.
Description: as §1

Test [8] relates to OE21 oesophageal cancer cells. Briefly: MTT colorimetric assay, overall cell growth, OE21. The format is cell-based, human. Conditions: 72 hours of incubation, read-out: In Vitro IC50 Growth Inhibitory Values, OE21.
Description: as §1

In test [9] the test system is OE33 oesophageal cancer cells. The test can be described thus: MTT colorimetric assay, overall cell growth, OE33. The format is cell-based, human. Conditions: 72 hours of incubation, read-out: In Vitro IC50 Growth Inhibitory Values, OE33.
Description: as §1

The test system of test [10] is VM21 melanoma cells. The test can be described thus: MTT colorimetric assay, overall cell growth, VM21. Format: cell-based, human. Particulars: MTT, 72 hours of incubation, read-out: In Vitro IC50 Growth Inhibitory Values, VM21.
Description: as §1

In test [11] the test system is VM48 melanoma cells. The test can be described thus: MTT colorimetric assay, overall cell growth, VM48. Conditions: MTT, 72 hours of incubation, read-out: In Vitro IC50 Growth Inhibitory Values, VM48. Format: cell-based, human.
The subject of test [12] is Eleven human cancer cell lines. Briefly: MTT colorimetric assay, across the eleven human cancer cell lines. Format: cell-based. Particulars: mean ± SEM over the 11 human cancer cell lines, MTT, 72 hours; read-out: In Vitro IC50 Growth Inhibitory Values, m ± SEM.
Description: as §1

In test [13] the test system is B16F10 melanoma cell-line. The test can be described thus: MTT colorimetric assay, overall cell growth, B16F10. Particulars: 72 hours of incubation, read-out: In Vitro IC50 Growth Inhibitory Values, B16F10. Format: cell-based, mouse.
Description: as §1

Structures are written as SMILES. Like-named read-outs stand apart in the source and are kept apart here. Where only a bound is given, the exact number is not on record here.

For the compound `COc1cc(C(=O)NC2CCC(NC(=O)c3ccc(O)c(OC)c3)CC2)ccc1O` (mixture of isomers) [DLT40, N,N′-cis/trans-cyclohexane-1,4-diyl bis-(4-hydroxy-3-methoxybenzamide)], the IC50 was > 100 µM in test [1]; 95 µM in [2]; > 100 µM in [3]; 87 µM in [4]; 80 µM in test [5]; 78 µM in test [6]. Also, the IC50 in test [7] was > 100 µM; in test [8], 81 µM; in test [9], > 100 µM; in test [10] it was > 100 µM; in test [11], 98 µM; in [12], > 100 µM. The IC50 in [13] was found to be 36 µM.
In the case of `COc1cc(C(=O)O[C@H]2CCCCC[C@@H]2OC(=O)c2ccc(O)c(OC)c2)ccc1O` (relative stereo) [DLT22, S,S-trans-cycloheptane-1,2-diyl bis-(4-hydroxy-3-methoxybenzoate)], the IC50 in test [1] was found to be 54 µM; in test [2] it was 44 µM; in [3] it was 46 µM; in [4] it was 88 µM; in test [5], 69 µM; in test [6] it was 44 µM. Moreover, the IC50 was 24 µM in test [7]; 49 µM in test [8]; 55 µM in test [9]; 51 µM in test [10]; 50 µM in test [11]; 52 µM in test [12]. In addition, the IC50 in test [13] turned out to be 10 µM.
In the case of `O=C(O[C@@H]1CCCC[C@H]1OC(=O)c1ccc(O)c(Cl)c1)c1ccc(O)c(Cl)c1` (relative stereo) [DLT30, R,R-trans-cyclohexane-1,2-diyl bis-(4-hydroxy-3-chlorobenzoate)], the half-inhibitory concentration (IC50) in [1] stood at 31 µM; in [2] it was 10 µM; in [3], 18 µM; in [4], 44 µM; in test [5] it was 21 µM; in test [6], 26 µM. Further, the IC50 in [7] was 11 µM; in [8] it was 41 µM; in test [9] it was 34 µM; in [10], 53 µM; in test [11], 58 µM; in test [12] it was 32 µM. Besides, the IC50 in test [13] is 1 µM.
For the compound `COc1cc(C(=O)O[C@H]2CCC[C@@H]2OC(=O)c2ccc(O)c(OC)c2)ccc1O` (stereo in doubt) [DLT15, S,S-trans-cyclopentane-1,2-diyl bis-(4-hydroxy-3-methoxybenzoate)], the IC50 in [1] worked out at 30 µM; in [2], 25 µM; in test [3], 30 µM; in test [4] it was 26 µM; in [5], 23 µM; in [6], 28 µM. The IC50 came out at 30 µM in [7]; 28 µM in test [8]; 28 µM in test [9]; 35 µM in [10]; 26 µM in test [11]; 28 µM in test [12]. The half-maximal inhibitory concentration (IC50) in [13] came to 6 µM.
As to `COc1cc(C(=O)O[C@@H]2CCC[C@H]2OC(=O)c2ccc(O)c(OC)c2)ccc1O` (stereo in doubt) [DLT16, R,R-trans-cyclopentane-1,2-diyl bis-(4-hydroxy-3-methoxybenzoate)], the IC50 in test [1] was determined as 31 µM; in test [2], 22 µM; in [3] it was 21 µM; in test [4] it was 25 µM; in [5] it was 25 µM; in test [6], 29 µM. The IC50 in test [7] turned out to be 32 µM; in [8], 27 µM; in test [9] it was 28 µM; in [10] it was 26 µM; in test [11] it was 29 µM; in [12], 27 µM. For the same compound, the IC50 in test [13] was determined as 4 µM.
Turning to `COc1cc(C(=O)O[C@H]2CC[C@H](OC(=O)c3ccc(O)c(OC)c3)C2)ccc1O` (stereo in doubt) [DLT18, S,S-trans-cyclopentane-1,3-diyl bis-(4-hydroxy-3-methoxybenzoate)], the IC50 in [1] was > 100 µM; in [2], 46 µM; in test [3], 43 µM; in [4], 43 µM; in [5] it was 44 µM; in test [6], 41 µM. The IC50 in [7] is > 100 µM; in test [8], 53 µM; in test [9], 64 µM; in test [10], > 100 µM; in test [11] it was 59 µM; in test [12], > 100 µM. The IC50 in test [13] was 30 µM.
For the compound `COc1cc(C(=O)O[C@@H]2CC[C@@H](OC(=O)c3ccc(O)c(OC)c3)C2)ccc1O` (stereo in doubt) [DLT19, R,R-trans-cyclopentane-1,3-diyl bis-(4-hydroxy-3-methoxybenzoate)], the IC50 in test [1] is 35 µM; in test [2] it was 30 µM; in test [3], 32 µM; in test [4], 42 µM; in test [5], 25 µM; in test [6] it was 18 µM. The half-maximal inhibitory concentration (IC50) in test [7] was found to be 31 µM; in test [8] it was 34 µM; in test [9], 36 µM; in [10], 37 µM; in [11], 53 µM; in test [12], 34 µM. The IC50 in test [13] was found to be 26 µM.
For `COc1cc(C(=O)OCc2ccccc2COC(=O)c2ccc(O)c(OC)c2)ccc1O` [DLT24, [2-[(4-hydroxy-3-methoxy-benzoyl)oxymethyl]phenyl]methyl 4-hydroxy-3-methoxy-benzoate], the IC50 in [10] (Homo sapiens) was 48 µM; in test [11] (Homo sapiens), 58 µM; in test [12], 53 ± 2 µM.
On the same counts, the results for `COc1cc(C(=O)OCc2cccc(COC(=O)c3ccc(O)c(OC)c3)c2)ccc1O` [DLT25, [3-[(4-hydroxy-3-methoxy-benzoyl)oxymethyl]phenyl]methyl 4-hydroxy-3-methoxy-benzoate] are 81 µM, 51 µM and 52 ± 5 µM.
For the compound `COc1ccc(C(=O)OCCCCCCOC(=O)c2ccc(OC)c(OC)c2)cc1OC` [DLT26, 6-(3,4-dimethoxybenzoyl)oxyhexyl 3,4-dimethoxybenzoate], the IC50 in test [10] (Homo sapiens), in [11] (Homo sapiens) and in [12] was > 100 µM in each case.
For `COc1cc(C(=O)OC/C=C/COC(=O)c2ccc(O)c(OC)c2)ccc1O` [DLT27, 1,4-oxybut-2-enyl-bis(4-hydroxy-3-methoxybenzoate)], the IC50 in [4] (Homo sapiens), in [10] (Homo sapiens), in [11] (Homo sapiens) and in test [12] was > 100 µM each time.
As to `COc1cc(C(=O)OCC#CCOC(=O)c2ccc(O)c(OC)c2)ccc1O` [DLT28, 1,4-oxybut-2-ynyl bis(4-hydroxy-3-methoxybenzoate)], the half-inhibitory concentration (IC50) stood at 42 µM in test [10] (Homo sapiens), 60 µM in test [11] (Homo sapiens) and 50 ± 4 µM in [12].
The matching figures for `COc1ccc(C(=O)OCCCCCCOC(=O)c2ccc(OC)c(O)c2)cc1O` [DLT29, 6-(3-hydroxy-4-methoxy-benzoyl)oxyhexyl 3-hydroxy-4-methoxy-benzoate]: 74 µM, 82 µM and > 100 µM.

The term IC50 denotes the concentration that inhibits the measured activity by half.
